Laboratory results: patent publication US12678411B2, “Nanoformulations of pazopanib, compositions comprising the same and methods of treating osteoarthritis” (The United States Government as represented by the …, priority 2021, dated 2026)

What was measured:
[1] = test system: mice with knee joint OA (PMM); test: Mechanical allodynia (von Frey) in surgery-induced (PMM) knee OA mice; assay type: in vivo; details: IA 70 μg/kg twice per week, started at inflammatory pain stage
Procedure: Drugs are intraarticularly injected (twice/week) at 4 weeks after surgery (early OA stage). *p<0.05; **p<0.01; ***p<0.001; ****p<0.0001. PMM=partial medial meniscectomy.
2006; 33(2):348-354; and Kroin J S, et al. Gene. 2016. 10; 591(1): 1-5). Next, outcomes between IA injection of ZD6474 (also known as vandetanib, a selective inhibitor of Flk1, 70 μg/kg, injection frequency: twice per week) and pazopanib (an inhibitor of both Flt1 and Flk1, 70 μg/kg, injection frequency: twice per week) were compared. Twice perweek IA injection of these drugs was started at an inflammatory pain stage (within a week post-surgery) and continued for 12 weeks. After 12 weeks, joints were harvested, histopathological analyses performed, and pathological grading quantified by standard Osteoarthritis Research Society International (OARSI) scoring (1: Healthy, 5: Highly pathologic) (K. O. Vasquez and J. D. Peterson. J Pharmacol Exp Ther 2017, 361:87-98).
Nanoparticles of PEG-PCL (5k-b-6.5k) encapsulating pazopanib were prepared by the flash nanoprecipitation method using a multi-inlet vortex mixer (MIVM) (FIG. 13, nano-PAZ(I)). The resulting composition was intraarticularly injected into the knee joint of mice at the inflammatory pain stage (at one week after OA induction by surgery).

mice [2] = test: Mechanical hyperalgesia after intrathecal injection in mice; assay type: in vivo; details: intrathecal (i.t.) injection
Procedure: VEGF-A induces pain hypersensitivity through effects in the peripheral nervous system (PNS) and central nervous system (CNS). IA injection of Flt1 ligand (but not Flk1 ligand) caused mechanical hypersensitivity within 30 min (FIG. 2), showing that Flt1 ligands can directly activate the PNS to induce pain. Additionally, it was reported that animals with chronic OA pain had increased spinal levels of VEGF-A (FIG. 10). […] Given the similar dose (10 ng) and time course of mechanical hyperalgesia following IA injection (FIG. 2) and i.t. injections of VEGF-A (FIG. 11), VEGF signaling appears to be equally able to induce pain hypersensitivity in the PNS and CNS.

mice [3] = details: cited from earlier work

| Molecule | time after start of drug injection at which reduction in OA pain was seen [1] | pain response (mechanical hyperalgesia) (mice [2]) | mechanical allodynia after IA injection (mice [3]) |
| --- | --- | --- | --- |
| COc1cc2c(Nc3ccc(Br)cc3F)ncnc2cc1OCC1CCN(C)CC1 [ZD6474, vandetanib] | 5 weeks |  |  |
| NGF: nerve growth factor, a well-known OA pain mediator |  | no pain response | acutely increased mechanical allodynia |
